Four molecules from US10172843B2, “Piperidine derivatives” (Hoffmann-La Roche Inc., priority 2014, dated 2019) can be followed below.

The structures appear in SMILES notation.

Sequence of human Cat S (P25774 115-331): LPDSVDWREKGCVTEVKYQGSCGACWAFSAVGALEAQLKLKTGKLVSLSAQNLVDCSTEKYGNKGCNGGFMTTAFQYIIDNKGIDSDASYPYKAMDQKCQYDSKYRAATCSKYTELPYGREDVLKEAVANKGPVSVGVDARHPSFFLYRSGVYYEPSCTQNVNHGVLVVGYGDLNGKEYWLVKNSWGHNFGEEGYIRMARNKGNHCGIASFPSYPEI

The experiment has as its target human Cat S (Homo sapiens (Human), UniProt P25774). Briefly: Cathepsin enzyme inhibition assay (fluorogenic peptide substrate). It counts as biochemical. As to conditions: human Cat S, enzyme 1 nM, substrate Z-Val-Val-Arg-AMC, pH 6.5; read-out: CatS IC50.
One may read the IC50 as the concentration that gives 50% inhibition. Take `Cc1[nH]c(-c2ccc(C(F)(F)F)cc2)nc1CN1CCC(c2noc3cc(F)ccc23)CC1` [Example 37, 6-Fluoro-3-{1-[5-methyl-2-(4-trifluoromethyl-phenyl)-1H-imidazol-4-ylmethyl]-piperidin-4-yl}-benzo[d]isoxazole]: the IC50 was found to be 595 nM.

Regarding `Cc1[nH]c(-c2ccc(C(F)(F)F)cc2)nc1CN1CCC(N2Cc3ccccc3NC2=O)CC1` [Example 28, 3-{1-[5-Methyl-2-(4-trifluoromethyl-phenyl)-1H-imidazol-4-ylmethyl]-piperidin-4-yl}-3,4-dihydro-1H-quinazolin-2-one], the IC50 came to 190 nM. The same measure for `Cc1[nH]c(-c2ccc(S(=O)(=O)CC(C)C)cc2)nc1CN1CCC(n2c(=O)n(C)c3ccccc32)CC1` [Example 79, 1-Methyl-3-(1-{5-methyl-2-[4-(2-methyl-propane-1-sulfonyl)-phenyl]-1H-imidazol-4-ylmethyl}-piperidin-4-yl)-1,3-dihydro-benzoimidazol-2-one]: 2870 nM; for `Cc1[nH]c(-c2ccc(C(F)(F)F)c(F)c2)nc1CN1CCC(N2Cc3ccccc3NC2=O)CC1` [Example 47, 3-{1-[2-(3-Fluoro-4-trifluoromethyl-phenyl)-5-methyl-1H-imidazol-4-ylmethyl]-piperidin-4-yl}-3,4-dihydro-1H-quinazolin-2-one]: 145 nM.
